Tests used:
db/db MSC = test: Differentiation of db/db MSC towards endothelial cells (CD31 staining); assay type: cell-based, mouse; conditions: endogenic medium
Experimental: Endothelial cells were identified by CD31 staining. m±sd, n=4, *P<0.05.
Adipocytes were identified by Oil Red O staining. m±sd, n=4, *p<0.05 vs control. […] Endothelial cells were identified by CD31 staining. m±sd, n=4, *p<0.05 vs control, #p<0.05 vs 5 nM.

[1] = tested on: p19^Arf, p21^Waf1, and p27^Kip1; test: RT-PCR expression of p19^Arf, p21^Waf1, p27^Kip1 in HSCs; assay type: in vivo, mouse; conditions: ApoE^−/− mice, in vivo treatment
Experimental: The expression of p15^Ink4b, p16^Ink4a, p18^Ink4c, p19^ARF, P21^Waf1, and p27^Kip1 was determined using RT-PCR, a more sensitive and quantitative assay, in ApoE^−/− and WT HSCs.

[2] = tested on: hypercholesterolemic mice (ApoE^−/−, HCD); test: Azoxymethane (AOM)-induced colorectal neoplasia; parameters: species or system mouse; conditions: in vivo pretreatment
Excerpt: All mice were purchased from Jackson Laboratories (Bar Harbor, Me.) and were maintained in the mouse barrier facility. Care of mice was in accordance with NIH guidelines and the Institutional Animal Care and Use Committee of the University of Massachusetts Medical School approved all protocols. Mice were kept on a 12 hr day/night schedule and were allowed free access to chow and water. ApoE^−/− and WT mice were fed standard mouse chow (5.4 g fat/100 g diet, 0% cholesterol). HCD mice were fed a diet with 10 g fat/100 g diet, […] (Research Diets, New Brunswick, N.J.). […] Azoxymethane (AOM) was given by intraperitoneal injection (10 mg/Kg weekly for 3 weeks); 1% dextran sodium sulfate was added to the drinking water for the Pt week after AOM treatment. The colon and rectum was removed en bloc from each mouse and the number of polyps was identified using a dissecting microscope. Each polyp was frozen in OCT at −80° C. and cryosections (10 μM) cut. […] (A) Total serum cholesterol measured under fasting conditions (16 hr) was greater in ApoE^−/− and HCD groups than in the WT group. […] Ten weeks later, the incidence and number of polyps were determined in the colon and rectum, and a pathologist blinded to study condition assigned each polyp a histological grade (hyperplasia, grade 1, 2, or 3 adenoma, or carcinoma). […]

[3] = tested on: HSCs from hypercholesterolemic mice; test: H2O2 in lysates from freshly harvested HSCs; parameters: species or system mouse; conditions: ApoE and HCD mice, in vivo treatment
Experimental: HSCs were purified from bone marrow mononuclear cells by multi-parameter FACS sorting using the surface phenotype cKit^+Sca-1^+CD90.1^lowLin^−. A greater percentage of HSCs from ApoE^−/− and HCD mice stain with 2′,7′-dichlorofluorescein diacetate than WT KSL cells, indicating a higher oxidant level in cells from hypercholesterolemic mice. Two additional assays were carried out that confirmed this earlier finding: first, the level of H2O2 in HSC cell lysates, determined by spectrophotometry, was greater in ApoE^−/− and HCD mice than in WT mice (FIG. 42A).

p38 MAPK = test: Phosphorylated (activated) p38 MAPK expression in HSCs; assay type: in vivo, mouse
Excerpt: Activation of p38 MAPK by ROS has been reported in Atm^−/− mice and this event participates in ROS-induced loss of HSC quiescence. Expression of p38 MAPK was similar in HSCs from ApoE^−/−, HCD, and WT mice. However, expression of activated (phosphorylated) p38 MAPK is greater in HSCs from hypercholesterolemic mice than from WT mice (FIGS. 44A and 44B). FIGS. 44A-44C show p38 MAPK activation is greater in HSC from hypercholesterolemic mice. […] Neither treatment affected the outcome of competitive transplant with WT HSCs. m±sd, n=5 mice per group, *p<0.05 vs. WT, † p<0.05 vs. ApoE.

Compound: CC(=O)N[C@@H](CS)C(=O)O [NAC, N-acetylcysteine]
- differentiation towards endothelial cells (db/db MSC): increased differentiation towards endothelial cells
- HSC expression of p19^Arf, p21^Waf1, and p27^Kip1 [1]: fully reversed these increases
- histological severity of AOM-induced colorectal polyps ([2]; ApoE^−/− and HCD mice): these effects were reversed by in vivo pretreatment with NAC
- susceptibility to AOM-induced neoplasia ([2]; hypercholesterolemic mice): reduced susceptibility to AOM-induced neoplasia
- H2O2 in HSC lysates [3]: significantly decreased by in vivo NAC treatment
- expression of activated p38 in HSCs (p38 MAPK; ApoE^−/− mice, in vivo treatment): significantly reduced expression of activated p38 in ApoE^−/− HSCs
- expression of activated p38 in HSCs (p38 MAPK; WT mice): had no effect on activated p38 expression in WT HSCs
